Test systems include K-562 leukemia; A549 NSCLC; HOP-92 NSCLC; MOLT-4 leukemia; HOP-62 NSCLC; OVCAR-5 ovarian; COLO 205 colon; CAKI-1 renal; MALME-3M melanoma; SF-295 CNS.
Holding throughout (assay): inhibition of tumour cell growth, NCI panel, 48 h

We go through 13 compounds from PubChem BioAssay (NCI).

Where “and” joins values, the source holds several entries; their conditions need not be identical. Equal values may be shown once.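 All cell lines were grown in 96-well plates and treated with compound for 48 hours. The concentration for 50% growth inhibition is given as GI50. TGI is the concentration that stops growth completely.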

As to `O=C(Nc1nc2ccc(OC(F)(F)F)cc2s1)c1ccc(F)cc1`, the GI50 in the test on K-562 leukemia is 3.58 µM; in the test on A549 NSCLC it was 3.51 µM; in the test on HOP-92 NSCLC, 3.91 µM; in the test on MOLT-4 leukemia, 3.08 µM; in the test on HOP-62 NSCLC, 3.81 µM; with OVCAR-5 ovarian it was 3.62 µM. For the same compound, the GI50 in the test with COLO 205 colon was 2.11 µM; in the test on CAKI-1 renal, 2.29 µM; in the test on MALME-3M melanoma it was 2.93 µM; with SF-295 CNS, 2.54 µM. The TGI with K-562 leukemia is greater than 100 µM; with A549 NSCLC, greater than 100 µM; with HOP-92 NSCLC it was 8.35 µM; with MOLT-4 leukemia it was 84.9 µM; in the test with HOP-62 NSCLC, 26.9 µM; in the test on OVCAR-5 ovarian it was 27.6 µM. The TGI with COLO 205 colon stood at 4.11 µM; with CAKI-1 renal, 7.26 µM; in the test with MALME-3M melanoma it was 8.06 µM; with SF-295 CNS it was 9.35 µM.
In the case of `Cc1ncnc2c1ccn2[C@@H]1C[C@H](Oc2cc(C(F)F)c(F)c3c2CNCC3)[C@@H](O)[C@H]1O`, the GI50 is greater than 100 µM with K-562 leukemia; greater than 100 µM in the test with A549 NSCLC; 4.68 µM with HOP-92 NSCLC; greater than 100 µM in the test on MOLT-4 leukemia; greater than 100 µM in the test with HOP-62 NSCLC; greater than 100 µM in the test on OVCAR-5 ovarian. The GI50 with COLO 205 colon, in the test on CAKI-1 renal, in the test with MALME-3M melanoma and in the test on SF-295 CNS was greater than 100 µM each time. Also, the TGI in the test on K-562 leukemia, in the test on A549 NSCLC, in the test with HOP-92 NSCLC, with MOLT-4 leukemia, with HOP-62 NSCLC and in the test with OVCAR-5 ovarian was greater than 100 µM throughout. Further, the TGI in the test on COLO 205 colon, in the test on CAKI-1 renal, in the test on MALME-3M melanoma and in the test on SF-295 CNS was greater than 100 µM in each case.
As to `CN1CCC(=C(c2ccc(Cl)cc2)c2ccccn2)CC1`, the GI50 was 74.7 µM with K-562 leukemia; greater than 100 µM with A549 NSCLC; 16.7 µM with HOP-92 NSCLC; greater than 100 µM with MOLT-4 leukemia; greater than 100 µM in the test with HOP-62 NSCLC; greater than 100 µM in the test with OVCAR-5 ovarian. In addition, the GI50 in the test on COLO 205 colon was 31.7 µM; in the test on CAKI-1 renal, greater than 100 µM; in the test on MALME-3M melanoma it was 40.9 µM; in the test with SF-295 CNS it was 37.6 µM. The TGI in the test with K-562 leukemia, with A549 NSCLC, in the test on HOP-92 NSCLC, with MOLT-4 leukemia, with HOP-62 NSCLC and in the test on OVCAR-5 ovarian was greater than 100 µM each time. For the same compound, the TGI in the test with COLO 205 colon, in the test on CAKI-1 renal, in the test with MALME-3M melanoma and with SF-295 CNS was greater than 100 µM each time.
On to `Cc1cc(C)c([O-])c(-[n+]2c(-c3ccccc3)cc(-c3ccccc3)cc2-c2ccccc2)c1`, for which the TGI in the test with K-562 leukemia is greater than 100 µM; with A549 NSCLC it was 28 µM; with HOP-92 NSCLC, 5.48 µM; in the test on MOLT-4 leukemia it was greater than 100 µM; in the test on HOP-62 NSCLC, 22.8 µM; with OVCAR-5 ovarian, 18.4 µM. Also, the TGI with COLO 205 colon turned out to be 12.2 µM; with CAKI-1 renal, 22.1 µM; in the test on MALME-3M melanoma it was 16.7 µM; in the test on SF-295 CNS it was 17.1 µM.
Consider `N#CC(Cl)CS(=O)(=O)c1ccccc1` (stereo not drawn), for which the TGI with K-562 leukemia is 4.85 µM; in the test with A549 NSCLC it was 41.7 µM; in the test with HOP-92 NSCLC, 4.1 µM; in the test on MOLT-4 leukemia it was 3.62 µM; in the test with HOP-62 NSCLC, greater than 59.1 µM; in the test on OVCAR-5 ovarian it was 35.3 µM. Also, the TGI is 3.8 µM in the test on COLO 205 colon, 10.2 µM in the test with CAKI-1 renal, 4.54 µM in the test with MALME-3M melanoma and 36.3 µM with SF-295 CNS. Also, in the test with MOLT-4 leukemia, the GI50 was 0.0561 µM.
Regarding `CN1C(=O)[C@@H](CC2CCCC2)N(C2CCCC2)c2nc(Nc3cc(Cl)c(O)c(Cl)c3)ncc21`, the GI50 in the test with K-562 leukemia was 14.6 µM; in the test with A549 NSCLC, 22.1 µM; in the test with HOP-92 NSCLC it was 13.6 µM; in the test on MOLT-4 leukemia it was 12.2 µM; in the test on HOP-62 NSCLC, 27.9 µM; with OVCAR-5 ovarian, 27.7 µM. Also, the GI50 in the test on COLO 205 colon was 23 µM; in the test with CAKI-1 renal, 23.1 µM; with MALME-3M melanoma it was 20.7 µM; in the test with SF-295 CNS, 23.3 µM. Besides, the TGI in the test on K-562 leukemia was greater than 100 µM; in the test with A549 NSCLC, greater than 100 µM; with HOP-92 NSCLC, 66.7 µM; in the test with MOLT-4 leukemia it was 56 µM; in the test on HOP-62 NSCLC, greater than 100 µM; in the test on OVCAR-5 ovarian, greater than 100 µM. Also, the TGI was 56.1 µM in the test on COLO 205 colon, greater than 100 µM in the test with CAKI-1 renal, 75.2 µM in the test with MALME-3M melanoma and 81.9 µM with SF-295 CNS.
As for `COc1ccc(C(=O)C(c2ccc(OC)cc2)C2(O)C(=O)Nc3c(Cl)cc(Cl)cc32)cc1` (stereo not drawn), the TGI was 41.5 µM in the test with K-562 leukemia; 54.9 µM in the test on A549 NSCLC; 33.2 µM with HOP-92 NSCLC; 36.2 µM with MOLT-4 leukemia; 54.4 µM in the test on HOP-62 NSCLC; 40.9 µM in the test on OVCAR-5 ovarian. Further, the TGI in the test with COLO 205 colon is 74.3 µM; in the test with CAKI-1 renal it was 49.6 µM; with MALME-3M melanoma it was 29.8 µM; in the test with SF-295 CNS, 39.9 µM.
Consider `COc1ccc(/C=C/C(=O)C(=O)/C=C/c2ccc(OC)c(OC)c2)cc1OC`, for which the GI50 in the test with K-562 leukemia is 1.07 µM; in the test with A549 NSCLC it was greater than 100 µM; in the test on HOP-92 NSCLC it was 15.1 µM; with MOLT-4 leukemia, 2.06 µM; in the test on HOP-62 NSCLC, 6.8 µM; in the test with OVCAR-5 ovarian it was 2.5 µM. The GI50 in the test on COLO 205 colon was 1.9 µM; with CAKI-1 renal it was 3.17 µM; in the test on MALME-3M melanoma, 5.77 µM; in the test with SF-295 CNS, 3.05 µM. Also, the TGI was greater than 100 µM in the test on K-562 leukemia; greater than 100 µM in the test with A549 NSCLC; 82.8 µM in the test with HOP-92 NSCLC; 19.3 µM in the test on MOLT-4 leukemia; greater than 100 µM in the test with HOP-62 NSCLC; 8.08 µM in the test with OVCAR-5 ovarian. Besides, the TGI in the test on COLO 205 colon is 4.95 µM; in the test on CAKI-1 renal, greater than 100 µM; in the test on MALME-3M melanoma, 78.8 µM; in the test on SF-295 CNS it was 31.2 µM.
For `O=C(CCl)N1CCN(c2ccccn2)CC1`, the TGI is greater than 100 µM in the test on K-562 leukemia; greater than 10 µM in the test on A549 NSCLC; 36.3 µM in the test with HOP-92 NSCLC; greater than 100 µM in the test on MOLT-4 leukemia; 46.2 µM in the test with HOP-62 NSCLC; 35.1 µM in the test with OVCAR-5 ovarian. Besides, the TGI is 47.4 µM in the test with COLO 205 colon, 33.5 µM in the test with CAKI-1 renal, 31.8 µM with MALME-3M melanoma and greater than 10 µM in the test on SF-295 CNS.
With `CC[C@@]1(O)C(=O)OCc2c1cc1n(c2=O)Cc2cc3cc(O)ccc3nc2-1`, the GI50 with K-562 leukemia was 0.0419 µM and 0.0427 µM; in the test on A549 NSCLC it was 0.0813 µM; in the test with HOP-92 NSCLC it was 0.0239 µM; in the test on MOLT-4 leukemia, 0.011 µM; in the test with HOP-62 NSCLC, less than 0.0075 µM; in the test on OVCAR-5 ovarian, 0.122 µM. For the same compound, the GI50 in the test on COLO 205 colon is 0.573 µM; in the test on CAKI-1 renal it was 0.042 µM; in the test on MALME-3M melanoma, 0.0567 µM; in the test with SF-295 CNS it was 0.0282 µM and 0.029 µM. Further, the TGI was 24.7 µM and > 46.5 µM in the test on K-562 leukemia; 3.93 µM and 2.32 µM with A549 NSCLC; 0.107 µM and 0.513 µM in the test with HOP-92 NSCLC; 0.0319 µM and 0.153 µM in the test with HOP-62 NSCLC; 2.36 µM and 2.56 µM in the test with COLO 205 colon; 1.45 µM and 0.877 µM in the test with MALME-3M melanoma. Also, the TGI with SF-295 CNS was 0.799 µM and 3.91 µM.
As for `Cc1c(C(=O)/C=C/c2ccc([N+](=O)[O-])cc2)[n+](=O)c2ccccc2n1[O-]`, the TGI is greater than 100 µM in the test with K-562 leukemia; greater than 100 µM with A549 NSCLC; greater than 100 µM in the test on HOP-92 NSCLC; 82.2 µM in the test with MOLT-4 leukemia; greater than 100 µM in the test with HOP-62 NSCLC; greater than 100 µM in the test on OVCAR-5 ovarian. Also, the TGI with COLO 205 colon, in the test on CAKI-1 renal, in the test on MALME-3M melanoma and in the test with SF-295 CNS was greater than 100 µM each time.
As to `O=C(O)C1CC[N-]CC1.O=C(O)C1CC[N-]CC1.[NH2-].[NH2-].[Pt+4]`, the GI50 in the test with K-562 leukemia, in the test on A549 NSCLC, in the test with HOP-92 NSCLC, with MOLT-4 leukemia, in the test on HOP-62 NSCLC and with OVCAR-5 ovarian was greater than 100 µM each time. Moreover, the GI50 with COLO 205 colon, with CAKI-1 renal, in the test on MALME-3M melanoma and with SF-295 CNS was greater than 100 µM in each case. The TGI with K-562 leukemia, in the test with A549 NSCLC, in the test with HOP-92 NSCLC, in the test with MOLT-4 leukemia, in the test with HOP-62 NSCLC and with OVCAR-5 ovarian was greater than 100 µM each time. The TGI in the test with COLO 205 colon, in the test on CAKI-1 renal, in the test on MALME-3M melanoma and with SF-295 CNS was greater than 100 µM throughout.
In the case of `CCN1C[C@@H](C)n2c(c(O)c3c(=O)n(Cc4ccc(F)c(Cl)c4)nc(C(=O)NC)c32)C1=O`, the GI50 in the test with K-562 leukemia is 3.39 µM; with A549 NSCLC, 3.14 µM; in the test with HOP-92 NSCLC it was 1.7 µM; with MOLT-4 leukemia, 4.18 µM; in the test with HOP-62 NSCLC, 3.16 µM; in the test on OVCAR-5 ovarian, 3.86 µM. Further, the GI50 in the test with COLO 205 colon was 18.3 µM; in the test with CAKI-1 renal it was 3.03 µM; in the test on MALME-3M melanoma, 2.75 µM; in the test on SF-295 CNS, 2.88 µM. The TGI with K-562 leukemia is greater than 100 µM; in the test with A549 NSCLC, greater than 100 µM; in the test on HOP-92 NSCLC, 4.91 µM; with MOLT-4 leukemia, greater than 100 µM; in the test with HOP-62 NSCLC it was 24.7 µM; with OVCAR-5 ovarian, greater than 100 µM. Also, the TGI with COLO 205 colon is 40.3 µM; with CAKI-1 renal it was 16.6 µM; in the test with MALME-3M melanoma, 8.07 µM; with SF-295 CNS it was greater than 100 µM.
